Where a SMILES comes first, the peptide text is derived from it. Bridges are numbered along the chain shown (N, C = ends). [ ]: non-standard residue; d: D form. The star is where a group is joined. hPhe(3-Cl-4-CF3) = N[C@@H](CCc1ccc(C(F)(F)F)c(Cl)c1)C(=O)O; NPrPhe(4-CF3) = CCCN[C@@H](Cc1ccc(C(F)(F)F)cc1)C(=O)O; NMeGly(cPent) = CN[C@H](C(=O)O)C1CCCC1; Pro(4,4-F2) = O=C(O)[C@@H]1CC(F)(F)CN1; NMeD = CN[C@@H](CC(=O)O)C(=O)O; NMeL = CN[C@@H](CC(C)C)C(=O)O; Morpholide = C1CN(*)CCO1; Ac4c = NC1(C(=O)O)CCC1; NEtG = CCNCC(=O)O; Sar = CNCC(=O)O
Assays:
[1] = molecular target: GDP-bound NRAS wild-type protein (Homo sapiens, UniProt P01111); assay: Binding to NRAS by surface plasmon resonance (SPR), Single Cycle Kinetics
[2] = molecular target: GDP-bound HRAS wild-type protein (Homo sapiens, UniProt P01112); assay: Binding to HRAS by surface plasmon resonance (SPR), Single Cycle Kinetics
[3] = KD ratio, GDP-bound NRAS wild-type vs GDP-bound KRAS wild-type, SPR
[4] = KD ratio, GDP-bound HRAS wild-type vs GDP-bound KRAS wild-type, SPR

GDP-bound HRAS wild-type protein, sequence (P01112 whole entry): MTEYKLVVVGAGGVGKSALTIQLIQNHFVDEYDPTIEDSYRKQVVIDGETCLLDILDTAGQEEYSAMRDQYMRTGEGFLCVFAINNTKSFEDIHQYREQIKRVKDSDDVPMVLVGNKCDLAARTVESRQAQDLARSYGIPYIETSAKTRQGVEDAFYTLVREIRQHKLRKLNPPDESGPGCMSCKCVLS
GDP-bound NRAS wild-type protein, sequence (P01111 whole entry): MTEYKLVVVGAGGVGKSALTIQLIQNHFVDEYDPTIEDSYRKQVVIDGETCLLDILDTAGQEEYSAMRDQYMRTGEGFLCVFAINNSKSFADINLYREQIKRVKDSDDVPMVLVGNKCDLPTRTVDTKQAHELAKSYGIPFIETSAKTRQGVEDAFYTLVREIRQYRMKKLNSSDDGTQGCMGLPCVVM

## CCC(CC)[C@H]1C(=O)N(C)[C@H](C(=O)N(C)C)CC(=O)N(C)[C@@H](COC)C(=O)N[C@@H]([C@@H](C)CC)C(=O)N(C)CC(=O)N(C)[C@H]2C/C=C\CCN(C2=O)[C@@H](Cc2ccc(C)cc2)C(=O)N(C)CC(=O)N[C@@H](CCc2ccc(C(F)(F)F)c(OC)c2)C(=O)N2CCCCC[C@H]2C(=O)NC2(CC(C)(C)C2)C(=O)N1C [PP2970]
[1]; KD ratio NRAS/KRAS, class symbols
  NRAS/KRAS (ratio of KD value with respect to GDP-bound NRAS wild-type protein to KD value with respect to KRAS): A (a compound having 10 or more and less than 20 is denoted as A)
[2]; KD ratio HRAS/KRAS, class symbols
  HRAS/KRAS (ratio of KD value with respect to GDP-bound HRAS wild-type protein to KD value with respect to KRAS): A (a compound having 10 or more and less than 20 is denoted as A)

## CCO[C@@H]1C[C@H]2C(=O)NC3(CCC3)C(=O)N(C)[C@@H](C3CCCC3)C(=O)N(C)[C@H](C(=O)N(C)C)CC(=O)N(C)[C@@H](CC3CC3)C(=O)N[C@@H]([C@@H](C)CC)C(=O)N(C)CC(=O)N(C)[C@H]3C/C=C\CCN(C3=O)[C@@H](Cc3ccc(C(F)(F)F)cc3)C(=O)N(C)CC(=O)N[C@@H](CCc3cc(F)c(C(F)(F)F)c(F)c3)C(=O)N2C1 [PP1111]
[1]; [3]
  NRAS/KRAS (ratio of KD value with respect to NRAS to KD value with respect to KRAS): A (a compound having 10 or more and less than 20 is denoted as A)
[2]; [4]
  HRAS/KRAS (ratio of KD value with respect to HRAS to KD value with respect to KRAS): A (a compound having 10 or more and less than 20 is denoted as A)

## CCOC[C@H]1C(=O)N[C@@H]([C@@H](C)CC)C(=O)N(C)CC(=O)N(C)[C@H]2C/C=C\CCN(C2=O)[C@@H](CC2CCCCC2)C(=O)N(C)CC(=O)N[C@@H](CCc2ccc(C(F)(F)F)c(OC)c2)C(=O)N2C[C@H](OCC)C[C@H]2C(=O)NC2(CC(C)(C)C2)C(=O)N(C)[C@@H](C(CC)CC)C(=O)N(C)[C@H](C(=O)N(C)C)CC(=O)N1C [PP2470]
[1]; SPR, GDP-bound NRAS wild-type vs GDP-bound KRAS wild-type
  NRAS/KRAS (ratio of KD value with respect to NRAS to KD value with respect to KRAS): A (a compound having 10 or more and less than 20 is denoted as A)
[2]; SPR, GDP-bound HRAS wild-type vs GDP-bound KRAS wild-type
  HRAS/KRAS (ratio of KD value with respect to HRAS to KD value with respect to KRAS): A (a compound having 10 or more and less than 20 is denoted as A)

## CC[C@H](C)[C@@H]1NC(=O)[C@H](CC(C)C)N(C)C(=O)C[C@@H](C(=O)N(CC)CC)N(C)C(=O)[C@H](C2CCCC2)N(C)C(=O)C2(CCC2)NC(=O)[C@@H]2C[C@H](C)CN2C(=O)[C@H](CCc2ccc(C(F)(F)F)c(OC)c2)NC(=O)CN(C)C(=O)[C@H](Cc2ccc(C)cc2)N2CC/C=C\C[C@@H](C2=O)N(C)C(=O)CN(C)C1=O [PP1885]
[1]; [3]
  NRAS/KRAS (ratio of KD value for NRAS to KD value for KRAS): AA (a compound having 20 or more is denoted as AA)
[2]; [4]
  HRAS/KRAS (ratio of KD value for HRAS to KD value for KRAS): A (a compound having 10 or more and less than 20 is denoted as A)

## CCCN1C(=O)CN(C)C(=O)CN(CC)C(=O)[C@H]([C@@H](C)CC)NC(=O)[C@H](CC(C)C)N(C)C(=O)C[C@@H](C(=O)N(C)C)N(C)C(=O)[C@H](C2CCCC2)N(C)C(=O)C2(CCC2)NC(=O)[C@@H]2CC(F)(F)CN2C(=O)[C@H](CCc2ccc(C(F)(F)F)c(Cl)c2)NC(=O)CN(C)C(=O)[C@@H]1Cc1ccc(C(F)(F)F)cc1 [PP0426] ([NMeL]I[NEtG][Sar][NPrPhe(4-CF3)][Sar][hPhe(3-Cl-4-CF3)][Pro(4,4-F2)][Ac4c][NMeGly(cPent)][NMeD]-NMe2; lactam N-11)
[1]; KD ratio NRAS/KRAS, SPR
  NRAS/KRAS (ratio of KD value with respect to GDP-bound NRAS wild-type protein to KD value with respect to KRAS): C (A compound having a KD ratio of 0.1 or more and less than 3 is denoted as C)
[2]; KD ratio HRAS/KRAS, SPR
  HRAS/KRAS (ratio of KD value with respect to GDP-bound HRAS wild-type protein to KD value with respect to KRAS): C (A compound having a KD ratio of 0.1 or more and less than 3 is denoted as C)

## CCO[C@@H]1C[C@H]2C(=O)NC3(CC(F)(F)C3)C(=O)N(C)[C@@H](C3CCCC3)C(=O)N(C)[C@H](C(=O)N3CCOCC3)CC(=O)N(C)[C@@H](CC(C)C)C(=O)N[C@@H]([C@@H](C)CC)C(=O)N(C)CC(=O)N(C)[C@H]3C[C@H]4C[C@H]4CN(C3=O)[C@@H](Cc3ccc(C(F)(F)F)cc3)C(=O)N(C)CC(=O)N[C@@H](CCc3cc(F)c(C(F)(F)F)c(F)c3)C(=O)N2C1 [PP0831]
[1]; [3]
  NRAS/KRAS (ratio of KD value with respect to NRAS to KD value with respect to KRAS): C (A compound having a KD ratio of 0.1 or more and less than 3 is denoted as C)
[2]; [4]
  HRAS/KRAS (ratio of KD value with respect to HRAS to KD value with respect to KRAS): C (A compound having a KD ratio of 0.1 or more and less than 3 is denoted as C)

## CCCN1C(=O)CN(C)C(=O)CN(CC)C(=O)[C@H]([C@@H](C)CC)NC(=O)[C@H](CC(C)C)N(C)C(=O)C[C@@H](C(=O)N2CCOCC2)N(C)C(=O)[C@H](C2CCCC2)N(C)C(=O)C2(CCC2)NC(=O)[C@@H]2CCCN2C(=O)[C@H](CCc2ccc(C(F)(F)F)c(Cl)c2)NC(=O)CN(C)C(=O)[C@@H]1Cc1ccc(C(F)(F)F)cc1 [PP0398] ([NMeL]I[NEtG][Sar][NPrPhe(4-CF3)][Sar][hPhe(3-Cl-4-CF3)]P[Ac4c][NMeGly(cPent)][NMeD]-Morpholide; lactam N-11)
[1]; KD ratio NRAS/KRAS, SPR
  NRAS/KRAS (ratio of KD for GDP-bound NRAS wild-type to KD for KRAS): B (a compound having 3 or more and less than 10 is denoted as B)
[2]; KD ratio HRAS/KRAS, SPR
  HRAS/KRAS (ratio of KD for GDP-bound HRAS wild-type to KD for KRAS): C (A compound having a KD ratio of 0.1 or more and less than 3 is denoted as C)
